These results are taken from patent US20230045112A1, “DISULFIRAM AND OTHER REDOX-RELATED COMPOSITIONS FOR BRAIN TUMORS” (Texas Tech University System, priority 2014, published 2023).

The target of one data set is T1, rMGMT (Homo sapiens, UniProt P16455).
T1 construct: hexa-histidine; made in house; host or cells: E. coli
T1 sequence (P16455 1-207): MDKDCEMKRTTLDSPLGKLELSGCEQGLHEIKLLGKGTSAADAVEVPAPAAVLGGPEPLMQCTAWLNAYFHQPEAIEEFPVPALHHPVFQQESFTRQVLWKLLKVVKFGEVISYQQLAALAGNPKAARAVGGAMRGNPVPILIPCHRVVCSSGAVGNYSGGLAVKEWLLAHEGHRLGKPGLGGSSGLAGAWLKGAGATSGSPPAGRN
Briefly: In vitro degradation of DSF treated rMGMT in rabbit reticulocyte lysates. In kind it is biochemical. The source says:
DSF-exposed MGMT samples were dialyzed to remove the residual drug prior to the degradation assays. […] The protein bands were quantified by densitometry.
The samples were immunoblotted and probed with MGMT antibodies (right panel). The densitometric quantitation of protein bands on the western blots is shown as a line graph on the left. […] Cell lysates were western blotted for the MGMT protein. […] Kinetics of DNA interstrand crosslinks formed in UW228 cells after treatment with […] BCNU or […] melphalan is shown. […] They were then exposed to BCNU or melphalan. At times specified, the cells were harvested, DNA isolated and the extent of interstrand crosslinking of DNA was determined using the ethidium bromide fluorescence assay. Values are mean+S.D. The results were significant at P<0.05. […] The cells were trypsinized at times indicated and analyzed by flow cytometry.
Since the MGMT inactivated by BG is degraded through ub-proteolysis, it was of interest to investigate the mode of elimination of DSF-modified MGMT protein. Therefore, first, we compared the in vitro degradation of DSF-treated and untreated rMGMT protein in rabbit reticulocyte lysates (RL), which are known to promote the proteasomal degradation. The control and DSF-modified MGMT proteins were incubated with RL in the presence of Mg++, ATP and ubiquitin at 37° C. The reaction mixtures were blotted and probed with MGMT antibodies. […] To show the involvement of the ub-proteolysis in cells a clinically used proteasome inhibitor. […] Taken together, the results presented in FIGS. 4A-4B confirm that DSF-modified MGMT is perceived as a structurally altered/damaged protein in cells and eliminated through the ub-proteasomal route.

The target of data set [1] is T2, purified recombinant MGMT (rMGMT) (Homo sapiens, UniProt P16455).
T2 construct: hexa-histidine; made in house; host or cells: E. coli
Briefly: MGMT DNA repair activity ([3H]-methyl transfer), purified recombinant MGMT treated with DSF. The class given is biochemical. As for the experimental part: The DNA repair activity of MGMT was measured by the transfer of [3H]-labeled methyl groups from the O^6-position of guanine in the DNA substrate to the MGMT protein as described previously. The DNA substrate enriched in O6-methylguanine was prepared by reacting [3H]-methylnitrosourea (GE Healthcare, 60 Ci/mmol). Briefly, the cell pellets were washed with cold PBS, disrupted by sonication in the assay buffer (30 mM Tris-HCl pH 7.5, 0.5 mM DTT, 0.5 mM EDTA, 5% glycerol, and 20 μM spermidine) and centrifuged. The extracts (50-150 μg protein) were supplemented with the [3H]-DNA (10,000 cpm) and incubated at 37° C. The reactions were terminated by the addition of TCA, the DNA substrate was hydrolyzed at 80° C., and following filtration on glass fiber discs; the radioactivity present in protein precipitates was quantitated.
Cells were trypsinized, washed and MGMT activity was determined in cell extracts (top panel). The same extracts were western blotted for MGMT protein. WB, western blot. […] Cells were exposed to CuDSF and analyzed for MGMT activity and protein as above. […] To delineate the appropriate time for alkylating drug treatments following MGMT inhibition, next, the time course of MGMT depletion by these three interventions was studied.

The next data set relates to UW228 cells. Briefly: MTT cell survival assay. In kind it is cell-based, human. As for the experimental part: These were performed using the yellow tetrazolium dye (3-(4, 5-dimethylthiazolyl-2)-2, 5-diphenyl tetrazolium bromide) (MTT) as described previously. […] The purple color developed due to formazan was measured at 570 nm using a […]luor Plus plate reader (Tecan Inc.). Cell proliferation was also assessed by colony formation assays on soft agar.
Cells were then cultured for 48 hours before performing the MTT assays. […] The effect of drugs on cell survival was computed at each concentration. The data represents the results of three independent experiments performed in triplicate.
For orientation: Tetrazolium assays rely on reduction of a dye to a coloured formazan, in cell work by metabolically active cells.

With `CCN(CC)C(=S)SSC(=S)N(CC)CC` [DSF, 1,1′,1″,1′″-[disulfanediylbis(carbonothioylnitrilo)]tetraethane], the entries for the “disappearance of DSF-modified rMGMT protein” value on rMGMT (10 minutes of incubation), at rMGMT (25 minutes of incubation) and on rMGMT (40 minutes of incubation) were 30%, 45% and 70%, respectively. Also, the inhibition at 25 µM in data set [1] worked out at 40%. Moreover, in the data set with UW228 cells (50 μM DSF preincubation 12 hours), the “effect on melphalan-induced cell killing” value is “did not increase the melphalan-induced cell killing”. Besides, the “potentiation of BCNU cytotoxicity” value in the data set with UW228 cells (50 μM DSF preincubation 12 hours, BCNU 4 days) amounted to 3 fold. In addition, the “increased cytotoxicity of TMZ+DSF compared to TMZ alone” value in the data set on UW228 cells (50 μM DSF preincubation 12 hours, TMZ 4 days) lay within 4 to 5 fold. In addition, the “cell killing by DSF alone” value in the data set with UW228 cells (50 μM DSF, 24 hours, then cultured 48 hours) is recorded as “less than 5%”.

A word on the inhibition: it is the percentage by which the read-out fell short of the control.
